Data set [1] in a line: CBD dosage optimisation and cell toxicity assay (WST-1). The following applies: human; HDF cells, 24 hours incubation, WST-1 reagent, CBD up to 25 μg/mL; read-out: CBD concentrations toxic to human fibroblast cells. Format: cell-based. The protocol: The following reagents were purchased from ThermoFisher: Human Fibroblast Expansion Basal Medium, Low Serum Growth Supplement (LSGS), EpiLife™ Medium with 60 μM calcium, Human Keratinocyte Growth Supplement (HKGS), Trypsin-EDTA (0.05%), phenol red. Fetal Bovine Serum (French Origin) was purchased from Scientifix. Human skin cells: Fibroblasts (HDF) and Keratinocyte (HEK) cells were purchased from Sigma Aldrich and ThermoFisher respectively. HDF cells were grown in Fibroblast media supplemented with 1×LSGS, while HEK cells were grown in Keratinocyte media supplemented with 1×HKGS. Both cell lines were kept in an incubator at 37° C., with 5% CO2.
The human skin cells (HDF and HEK) were cultured in respective media and were grown in T25 flasks until ~70-80% confluent. Once confluent, the cells were washed with 1×PBS and split using 0.05% Trypsin-EDTA solution. The cell pellet was collected and split into a fresh T25 flask and T75 flask containing full growth media at a dilution factor of 1:4 and incubated at 37° C., 5% CO2. Cells were >85-92% viable based on Trypan blue exclusion when seeding and passing. […]
A general note: Tetrazolium dyes change colour on reduction, which living cells bring about.

Data set [2] in a line: HEDS (2-hydroxyethyl disulphide) enzyme assay, NADPH consumption at A340 nm. It counts as biochemical. To be noted: coupled with glutathione (GSH) and glutathione reductase (GR); versus buffer control without CLIC. The protocol: The functional activity of the purified CLIC1, CLIC3 and CLIC4 proteins were analysed using the HEDS assay. The assay measures the ability of the CLIC proteins to reduce the HEDS substrate when coupled with glutathione (GSH) and glutathione reductase (GR) resulting in the consumption of NADPH that is monitored at A340 nm.

Consider `C=C(C)[C@@H]1CCC(C)=C[C@H]1c1c(O)cc(CCCCC)cc1O` [CBD, cannabidiol], for which, in data set [1], the MCC at 24 h is > 4 µg/mL.

With “CLIC4: purified recombinant human chloride intracellular channel protein 4, expressed in E. coli, GST tag cleaved”, in data set [2], the “enzymatic activity: reduction of HEDS substrate, decrease in absorbance at 340 nm (consumption of NADPH)” value is “significant enzymatic activity”.

(Values after patent US20260284150A1, “TOPICAL PROTEIN BASED FORMULATION” (OPTIMUS SALVUS LIMITED, priority 2023, published 2026).)
